# In US20260001967A1, “SYNTHETIC HEXASACCHARIDES MIMICS OF HEPARIN SHOWING HEPARANASE INHIBITION ACTIVITY” (CENTRO ALTA TECNOLOGIA ISTITUTO DI RICERCHE CHIMICHE E …, priority 2022, published 2026):
# Like-named read-outs stand apart in the source and are kept apart here.
# What was measured:
# heparanase [1] = biological target: T1, heparanase (Homo sapiens, UniProt Q9Y251); assay: Heparanase inhibition assay based on cleavage of fondaparinux, disaccharide assayed by colorimetry (Hammond); format: biochemical; conditions: for Inhibition of heparanase: over the concentration range tested
# T1 sequence (Q9Y251 158-543 limits assumed): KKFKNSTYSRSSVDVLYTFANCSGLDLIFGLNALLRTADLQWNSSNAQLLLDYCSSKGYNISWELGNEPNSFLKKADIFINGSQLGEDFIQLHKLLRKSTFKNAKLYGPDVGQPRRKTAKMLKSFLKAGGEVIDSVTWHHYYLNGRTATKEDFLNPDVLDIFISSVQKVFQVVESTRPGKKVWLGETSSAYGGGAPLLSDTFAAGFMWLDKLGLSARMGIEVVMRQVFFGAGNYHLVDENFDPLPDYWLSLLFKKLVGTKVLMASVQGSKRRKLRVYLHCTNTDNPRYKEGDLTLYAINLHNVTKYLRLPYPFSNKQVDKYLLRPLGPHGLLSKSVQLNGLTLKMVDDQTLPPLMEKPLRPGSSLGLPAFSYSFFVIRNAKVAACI
# T1 sequence (Q9Y251 36-109 limits assumed): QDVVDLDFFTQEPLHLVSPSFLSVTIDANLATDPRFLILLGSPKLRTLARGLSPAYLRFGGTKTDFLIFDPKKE
# From the text: To prepare 12 we adopted (Scheme 1) a classical disaccharide building-block approach (C. Tabeur et al., Oligosaccharides corresponding to the regular sequence of heparin: chemical synthesis and interaction with FGF-2. Bioorg. Med. Chem. 1999, 7, 2003-2012) based on the trichloroacetimidate glycosylation method (R. R. Schmidt, W. Kinzy, Adv. Carbohydr. Chem. Biochem. 1992, 50, 21-123). […] The hexasaccharide sequence was completed by reaction under similar conditions with the trichloroacetimidate disaccharide 8 itself classically obtained from 6. […] After saponification to remove the acetyl groups and cleave the methyl esters, preparative HPLC allowed to separate 10 from its β-anomer. […] The glycol-split derivatives were then obtained (Scheme 2). […] The inhibition of heparanase was evaluated using an assay based on the cleavage of the synthetic heparin pentasaccharide fondaparinux (Arixtra®; Aspen). Cleavage of fondaparinux by heparanase, yields a disaccharide that is assayed by colorimetry. The assay was essentially performed as described by Hammond (E. Hammond, C. P. Li, V. Ferro, Development of a colorimetric assay for heparanase activity suitable for kinetic analysis and inhibitor screening, Anal. Biochem. 396 (2010), 112-116, http://doi.10.1016/j.ab.2009.09.007.
# Serial dilutions of the compounds and of the reference roneparstat were tested. IC50 values were ultimately determined using GraphPad software.
# heparanase [2] = biological target: T1, heparanase; conditions: cited from earlier work
Inhibition of heparanase (heparanase [1]),Compound,also measured
hardly detectable,COC1OC(COS(=O)(=O)O)C(OC2OC(C(=O)O)C(OC3OC(COS(=O)(=O)O)C(OC4OC(C(=O)O)C(OC5OC(COS(=O)(=O)O)C(OC6OC(C(=O)O)C(OC)C(O)C6OS(=O)(=O)O)C(O)C5N)C(O)C4O)C(O)C3N)C(O)C2OS(=O)(=O)O)C(O)C1N (stereo not drawn) [Compound 12],–
hardly detectable,COC1OC(COS(=O)(=O)O)C(OC2OC(C(=O)O)C(OC3OC(COS(=O)(=O)O)C(OC4OC(C(=O)O)C(OC5OC(COS(=O)(=O)O)C(OC6OC(C(=O)O)C(OC)C(O)C6OS(=O)(=O)O)C(O)C5NS(=O)(=O)O)C(O)C4O)C(O)C3NS(=O)(=O)O)C(O)C2OS(=O)(=O)O)C(O)C1NS(=O)(=O)O (stereo not drawn) [Compound 13],"IC50 (heparanase [1]; Table 1, hexasaccharides, read-out: IC50): > 29.4 µM"
hardly detectable,COC1OC(COS(=O)(=O)O)C(OC2OC(C(=O)O)C(OC3OC(COS(=O)(=O)O)C(OC4OC(C(=O)O)C(OC5OC(COS(=O)(=O)O)C(OC6OC(C(=O)O)C(OC)C(O)C6OS(=O)(=O)O)C(O)C5NC(C)=O)C(O)C4O)C(O)C3NC(C)=O)C(O)C2OS(=O)(=O)O)C(O)C1NC(C)=O (stereo not drawn) [Compound 16],–
–,"GlcN(Ns,6s)-GlcA(gs)-GlcN(Ns,1,6anh)",IC50 (heparanase [2]): 2 µg/mL
–,Roneparstat [reference compound],IC50 (heparanase [1]): 0.006 µg/mL
